Test results from PubChem BioAssay AID330 (DTP/NCI, 2004).
Where “and” joins values, the source holds several entries; their conditions need not be identical. Equal values may be shown once. Inconclusive results and toxic doses are left out.

Test system: P388 leukemia ip, CD2F1 mice, survival T/C
Assay: NCI In Vivo Anticancer Drug Screen. Data for tumor model P388 Leukemia (intraperitoneal) in CD2F1 (CDF1) mice
Conditions: endpoint: median survival time, higher = longer survival
How it was run: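 Mice carrying the transplanted tumor received test compound or vehicle. Survival was recorded in each group, and the value is the treated-group measurement divided by that of the vehicle-treated control group.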

[1] = dose: 50.0 mg/kg/injection, schedule: Q01DX009 (ip), vehicle: saline with Tween-80
[2] = dose: 100.0 mg/kg/injection, schedule: Q01DX009 (ip), vehicle: saline with Tween-80
[3] = dose: 200.0 mg/kg/injection, schedule: Q01DX009 (ip), vehicle: saline with Tween-80
[4] = dose: 50.0 mg/kg/injection, schedule: Q01DX009 (ip), vehicle: Klucel (hydroxypropylcellulose) (HPC)
[5] = dose: 100.0 mg/kg/injection, schedule: Q01DX009 (ip), vehicle: Klucel (hydroxypropylcellulose) (HPC)
[6] = dose: 200.0 mg/kg/injection, schedule: Q01DX009 (ip), vehicle: Klucel (hydroxypropylcellulose) (HPC)
[7] = dose: 400.0 mg/kg/injection, schedule: Q01DX009 (ip), vehicle: Klucel (hydroxypropylcellulose) (HPC)

**Q.** Which results are given for `Cc1ccc(S(=O)(=O)OCC2OC(OC3(CO)OC(COS(=O)(=O)c4ccc(C)cc4)C(O)C3O)C(O)C(O)C2O)cc1` (stereo not drawn)?
**A.** T/C [1]: 100 % of control; T/C [2]: 98 % of control; T/C [3]: 99 % of control

**Q.** How did the T/C [4] turn out when `CCCCCCCCCCCC(=O)/C=C/c1ccccc1` was run?
**A.** The T/C was 102 % of control.

**Q.** What about the T/C [5] of the same compound?
**A.** The T/C was 93 % of control.

**Q.** And the T/C [6]?
**A.** The T/C was 94 % of control.

**Q.** Which results are given for `C=CC[C@]1(S(=O)(=O)c2ccccc2)[C@@H](N(C)C)C[C@@H](O[Si](C)(C)C(C)(C)C)[C@@H]1/C=C/[C@H](CCCCC)O[Si](C)(C)C(C)(C)C`?
**A.** T/C (dose: 12.5 mg/kg/injection, schedule: Q01DX005 (ip), vehicle: Klucel (hydroxypropylcellulose) (HPC)): 107 % of control; T/C (dose: 25.0 mg/kg/injection, schedule: Q01DX005 (ip), vehicle: Klucel (hydroxypropylcellulose) (HPC)): 111 % of control; T/C (dose: 50.0 mg/kg/injection, schedule: Q01DX005 (ip), vehicle: Klucel (hydroxypropylcellulose) (HPC)): 107 % of control

**Q.** With `O=C1C(S(=O)(=O)O)=CC(=Nc2ccc(O)cc2)c2ccccc21` as the compound, how does the T/C (dose: 50.0 mg/kg/injection, schedule: Q01DX005 (ip), vehicle: saline with Tween-80) read?
**A.** The T/C was 95 % of control.

**Q.** What about the T/C (dose: 100.0 mg/kg/injection, schedule: Q01DX005 (ip), vehicle: saline with Tween-80) of the same compound?
**A.** Its T/C is 107 % of control.

**Q.** And the T/C (dose: 200.0 mg/kg/injection, schedule: Q01DX005 (ip), vehicle: saline with Tween-80)?
**A.** Its T/C is 102 % of control.

**Q.** Which T/C (dose: 0.63 mg/kg/injection, schedule: Q01DX009 (ip), vehicle: other) does the source give for `CSc1ccc2c(NCCCCCCCCNc3c4ccccc4nc4cc(SC)ccc34)c3ccccc3nc2c1` here?
**A.** The T/C was 117 % of control.

**Q.** What about the T/C (dose: 1.25 mg/kg/injection, schedule: Q01DX009 (ip), vehicle: other) of the same compound?
**A.** The T/C was 119 % of control.

**Q.** And the T/C (dose: 2.5 mg/kg/injection, schedule: Q01DX009 (ip), vehicle: other)?
**A.** The T/C was 123 % of control.

**Q.** And the T/C (dose: 10.0 mg/kg/injection, schedule: Q01DX009 (ip), vehicle: other)?
**A.** Its T/C is 122 % of control.

**Q.** Which results are given for `COc1cc(NS(C)(=O)=O)ccc1Nc1c2ccccc2nc2cc(C(F)(F)F)c(N)cc12`?
**A.** T/C (dose: 13.0 mg/kg/injection, schedule: Q04DX003 (ip), vehicle: distilled water + Tween-80): 162 % of control; T/C (dose: 21.6 mg/kg/injection, schedule: Q04DX003 (ip), vehicle: distilled water + Tween-80): 180 % of control; T/C (dose: 25.0 mg/kg/injection, schedule: Q01DX009 (ip), vehicle: Klucel (hydroxypropylcellulose) (HPC)): 172 % of control; T/C (dose: 36.0 mg/kg/injection, schedule: Q04DX003 (ip), vehicle: distilled water + Tween-80): 190 % of control; T/C [4]: 152 % of control and 182 % of control; T/C (dose: 60.0 mg/kg/injection, schedule: Q04DX003 (ip), vehicle: distilled water + Tween-80): 228 % of control; T/C [5]: 123 % of control

**Q.** With `N#CC(Cc1ccccc1)(c1ccccc1)c1ccccc1` as the compound, how does the T/C [4] read?
**A.** Its T/C is 101 % of control.

**Q.** And the T/C [5]?
**A.** Its T/C is 96 % of control.

**Q.** What about the T/C [6] of the same compound?
**A.** Its T/C is 93 % of control.

**Q.** And the T/C [7]?
**A.** The T/C was 93 % of control.

**Q.** Which results are given for `N#CCS(=O)(=O)OCCCl`?
**A.** T/C (dose: 12.5 mg/kg/injection, schedule: Q01DX005 (ip), vehicle: saline with Tween-80): 120 % of control; T/C (dose: 37.5 mg/kg/injection, schedule: Q01DX005 (ip), vehicle: saline with Tween-80): 151 % of control

**Q.** How did the T/C (dose: 60.0 mg/kg/injection, schedule: Q01DX005 (ip), vehicle: saline with Tween-80) turn out when `Nc1nc(N)c2c(n1)NCN(OCCOc1ccc(Cl)cc1Cl)C2` was run?
**A.** The T/C was 105 % of control.

**Q.** And the T/C (dose: 120.0 mg/kg/injection, schedule: Q01DX005 (ip), vehicle: saline with Tween-80)?
**A.** The T/C was 90 % of control.

**Q.** How did the T/C [5] turn out when `O=C1c2ccccc2C(=O)c2c1ccc(C(=O)O)c2-c1ccc2ccccc2c1` was run?
**A.** The T/C was 101 % of control.

**Q.** What about the T/C [6] of the same compound?
**A.** Its T/C is 116 % of control.

**Q.** What about the T/C [7] of the same compound?
**A.** Its T/C is 117 % of control.

**Q.** Which results are given for `O=C1NC(=O)C2CCC12` (stereo not drawn)?
**A.** T/C [1]: 100 % of control; T/C [2]: 100 % of control; T/C [3]: 100 % of control

**Q.** With `O=C1c2cc(O)c(O)cc2O[C@H](c2ccc(O)c(O)c2)[C@H]1O` as the compound, how does the T/C [2] read?
**A.** Its T/C is 120 % of control.

**Q.** And the T/C (dose: 100.0 mg/kg/injection, schedule: Q04DX003 (ip), vehicle: saline with Tween-80)?
**A.** Its T/C is 100 % of control.

**Q.** What about the T/C [3] of the same compound?
**A.** Its T/C is 110 % of control.

**Q.** What about the T/C (dose: 200.0 mg/kg/injection, schedule: Q04DX003 (ip), vehicle: saline with Tween-80) of the same compound?
**A.** The T/C was 100 % of control.

**Q.** What about the T/C (dose: 400.0 mg/kg/injection, schedule: Q01DX009 (ip), vehicle: saline with Tween-80) of the same compound?
**A.** Its T/C is 120 % of control.

**Q.** What about the T/C (dose: 400.0 mg/kg/injection, schedule: Q04DX003 (ip), vehicle: saline with Tween-80) of the same compound?
**A.** Its T/C is 109 % of control.
